Assay results reported in publication PMC6397271 (Scientific Reports, 2019).
Values after ≈ are worked out from the molar mass of the structure shown.

Tests used:
[1] = test system: intracellular MRSA 12673 strain in HEK293 cells; test: Intracellular antimicrobial (infection) assay; format: cell-based, Staphylococcus aureus; details: MRSA-infected HEK293 cells, 25 µM, 24 h
Method: HEK293 (human embryonic kidney) cells were purchased form Cell Line Services (Germany). The cells were cultured in Dulbecco’s Modified Eagle’s (DMEM) medium with 4.5 g/l glucose (Sigma-Aldrich, Germany), supplemented with 10% fetal bovine serum (FBS, Sigma-Aldrich, Germany) and 1% PEN/STREP (Sigma-Aldrich, Germany). Cells were maintained in a 5% CO2 incubator at 37 °C. The original lines were checked for the presence of mycoplasma.
HEK293 cells were seeded at a density of 1.5 × 10^5 cells/well in 24-well plates in an antibiotic-free medium (DMEM + 10% FBS) and were allowed to adhere overnight. Next, the medium was removed and overnight culture of S. aureus strain (12673) suspended in DMEM + 1% FBS (invasive medium) at a ratio of bacteria/cells 25:1 was added. To enable bacterial invasion, the cells were incubated with bacterial suspensions (37 °C, 5% CO2) for 2 h.
After this period of time extracellular bacteria were eliminated by a 30 min incubation with 20 U/ml lysostaphin. […] The lysis of human cells was carried out with 0.2% Trition-X-100 (Sigma-Aldrich, Germany). The obtained cell lysates were serially diluted in PBS and plated on agar plates and CFU/ml was determined.
The results are presented as the percentage of S. aureus intracellular survival after treatment in comparison to that of non-treated cells (control). The assay was performed in triplicates.

[2] = test system: S.aureus MRSA 12673; test: microbe, parasite or virus in culture; format: cell-based, Staphylococcus aureus; details: TP10 alone
Method: (§1) To find out MICA(with B) and MICB(with A) a checkerboard assay was carried out in 96-well microtiter plates (each test was performed in triplicates). […] Each well in a 96-well plate was inoculated with 100 µL of bacterial inoculum of 1 × 10^5 CFU/mL. For this purpose only bacterial strains of MRSA (N315, 12673 and 6347) were used. Next, the plates were incubated at 37 °C for 24 h.
(§2) FIC index (FICI) is the sum of FICA and FICB. The interpretation of the calculated FICIs is in accordance to the following principle: FICI ≤ 0.5 synergy; FICI > 0.5 and ≤4 indifference (no interaction); FICI > 4, antagonism.

[3] = test system: S.aureus MRSA N315; test: microbe, parasite or virus in culture; format: cell-based, Staphylococcus aureus; details: TP10 alone
Method: as §1, §2

[4] = test system: S.aureus MRSA hetero-VISA 6347; test: microbe, parasite or virus in culture; format: cell-based, Staphylococcus aureus; details: TP10 alone
Method: as §1, §2

[5] = Brain concentration by LC/MS after iv administration; format: in vivo, BALB/c male mice; details: iv, 2 h, LC/MS of brain homogenate
Method: In vivo experiments were performed on BALB/c male mice weighing between 20 and 30 g (the mouse model is widely used for estimation of drug BBB penetration). The animals (obtained from TAZD-CBU) were kept in a 12-hour day and night cycle at room temperature (20–22 °C), humidity 55–56% and fed with a standard diet and water ad libitum for at least 1 week before the experiment. Body temperature and weight were recorded on a regular daily schedule. It is confirmed that all procedures were carried out according to the guidelines outlined by the European Community Council Directive 2010/63/EEC, and they were approved by the local Ethical Committee Resolution 26/2014 (Bydgoszcz, Poland).
The experiments in this section also involved the mouse model described above. […] Similarly to what was stated previously, the mice were sacrificed 2 hours after the administration of the compounds. Their brains were removed immediately from the cranium and weighed. Next, they were homogenized mechanically in the ice and frozen at −80 °C.
Each homogenized mouse brain was centrifuged at 15 000 × g for 10 min. The supernatant was diluted with deionised water (Millipore), filtered (PTFE 0.22 μm filter) and analyzed by UHPLC-ESI/MS with the use of Shimadzu Nexera X2 UHPCL chromatograph and Shimadzu LCMS-2020 mass detector. […]

[6] = test system: Enterococcus faecalis 3937158; test: microbe, parasite or virus in culture; format: cell-based; details: microbroth dilution, 96-well, resazurin, 37 °C, 24 h; mean ± SD, at least three independent experiments in triplicates
Excerpt: (§3) Three bacterial strains of MRSA (N315, 12673, 6347) and two of Enterococcus spp. (E. faecium, E. faecalis) were used. With respect to MRSA, N315 represented a reference Van-susceptible strain (GenBank GCA_00000645.1) isolated from a patient while 12673 (Van-intermediately susceptible) and 6347 (a h-VISA which appears at frequency of <10^−5 to 10^−6 is composed of two subpopulations of bacteria: one susceptible and one intermediately resistant)[38] were clinical strains obtained from patients of The Clinical University Centre of Gdańsk (UCK). […] The clinical strain isolates originated from the collection of the Department of Pharmaceutical Technology and Biochemistry, Faculty of Chemistry, Gdańsk University of Technology.
(§4) The strains were grown in Mueller-Hinton broth (MH cation-adjusted, Becton Dickinson) or Brain Heart Infusion broth (BHI, Becton Dickinson), respectively. The cultivation was carried out in an aerobic atmosphere at 37 °C for 24 hours and, afterwards, the bacterial cultures were diluted in geometric progression with a proper broth. Next, 100 µl of each dilution was inoculated in an agar plate and incubated at 37 °C for 24 h. The next procedures included determination of Colony Forming Units (CFU)/ml and minimal inhibitory concentration (MIC) of the compounds in question. The latter procedure was carried out according to the microbroth dilution technique using 96-well plates. The MICs were evaluated by using the metabolic assay based on the resazurin dye. The assay was performed in triplicates.

[7] = test system: Enterococcus faecium 3934825; test: microbe, parasite or virus in culture; format: cell-based; details: microbroth dilution, 96-well, resazurin, 37 °C, 24 h; mean ± SD, at least three independent experiments in triplicates
Excerpt: as §3, §4

[8] = test system: S. aureus MRSA 12673; test: microbe, parasite or virus in culture; format: cell-based, Staphylococcus aureus; details: microbroth dilution, 96-well, resazurin, 37 °C, 24 h; mean ± SD, at least three independent experiments in triplicates
Excerpt: as §3, §4

[9] = test system: S. aureus MRSA hetero-VISA 6347; test: microbe, parasite or virus in culture; format: cell-based, Staphylococcus aureus; details: microbroth dilution, 96-well, resazurin, 37 °C, 24 h; mean ± SD, at least three independent experiments in triplicates
Excerpt: as §3, §4

[10] = test system: S. aureus MRSA N315; test: microbe, parasite or virus in culture; format: cell-based, Staphylococcus aureus; details: microbroth dilution, 96-well, resazurin, 37 °C, 24 h; mean ± SD, at least three independent experiments in triplicates
Excerpt: as §3, §4

In the case of `CC[C@H](C)[C@H](NC(=O)[C@H](CCCCN)NC(=O)[C@H](CCCCN)NC(=O)[C@H](C)NC(=O)[C@H](CC(C)C)NC(=O)[C@H](C)NC(=O)[C@H](C)NC(=O)[C@H](CC(C)C)NC(=O)[C@H](C)NC(=O)[C@H](CCCCN)NC(=O)[C@H](CC(C)C)NC(=O)[C@H](CC(N)=O)NC(=O)[C@@H](NC(=O)[C@H](CCCCN)NC(=O)CNC(=O)[C@H](CC(C)C)NC(=O)[C@H](CC(C)C)NC(=O)[C@H](Cc1ccc(O)cc1)NC(=O)CNC(=O)[C@H](C)N)[C@@H](C)CC)C(=O)N[C@@H](CC(C)C)C(N)=O` [TP10, transportan 10, reference compound], the “intracellular MRSA killed (bacterial killing rate)” value [1] was 26%, the “MIC TP10 (B), MICB” value [2] was 6.3 µM and the “MIC TP10 (B), MICB” value [3] was 6.3 µM. For the same compound, the “MIC TP10 (B), MICB” value [4] was 12.5 µM, the “access to the brain / BBB penetration (in words)” value [5] was “did not gain access to the brain” and the “MIC” value [6] was 12.5 ± 2.2 µM (≈ 27.3 µg/mL). The “MIC” value [7] was 12.5 ± 3.4 µM (≈ 27.3 µg/mL), the “MIC” value [8] was 6.3 ± 1.6 µM (≈ 13.7 µg/mL) and the “MIC” value [9] was 12.5 ± 3.2 µM (≈ 27.3 µg/mL). For the same compound, the “MIC” value [10] was 6.3 ± 1.3 µM (≈ 13.7 µg/mL).
